Experimental findings from patent US9738684B2, “N-terminally modified linear and branched polyamine conjugated peptidomimetics as antimicrobials agents” (COUNCIL OF SCIENTIFIC & INDUSTRIAL RESEARCH, priority 2015, dated 2017) are described below.

Values after ≈ are worked out from the molar mass of the structure shown.

In one series the test system is S. aureus (ATCC 29213). Description: MIC, serial broth dilution. The format is cell-based, Staphylococcus aureus. Particulars: MHB, 18 h, 37° C. How it is done: (§1) The peptidomimetics designed in present invention were evaluated as antibacterial therapeutics against a broad range of bacterial strains by broth microdilution method. The antibacterial activity of the peptidomimetics was reported in terms of the minimum inhibitory concentrations (MIC).
(§2) Following bacterial strains were used in this study: S. aureus (ATCC 29213), methicillin resistant S. aureus (ATCC 33591), Staphylococcus epidermidis (ATCC 12228), methicillin resistant Staphylococcus epidermidis(ATCC 51625), Enterococcus faecalis (ATCC 7080), Escherichia coli (ATCC 11775), and Acinetobacter baumannii (ATCC 19606). Antibacterial activity was evaluated using a modified serial broth dilution method in accordance with Clinical Laboratory Standard Institute guidelines [Methods for dilution antimicrobial susceptibility tests for bacteria that grow aerobically-7th ed. Approved standard M7-A7. Clinical and Laboratory Standards Institute, Wayne, Pa., Biochim. Biophys. Acta 1798:1864-1875, 2010.]. Briefly, the inoculums were prepared from mid-log phase bacterial cultures. Peptidomimetics were incubated with bacterial suspension in Muller Hinton broth media (10^5 CFU/mL) in 96 well microtitre plate. The plates were incubated overnight with agitation (200 rpm) at 37° C. After 18 h, absorbance was measured at 630 nm. Cultures without test peptidomimetics were used as positive control. Un-inoculated Mueller Hinton Broth (MHB) was used as negative control. Tests were carried out in duplicate on at least three different days. […] For comparison standard peptide antibiotics vancomycin (VAN) and polymyxin B (PMB) were also assayed under identical conditions (Table 2). […] Further, antibacterial activity of active peptidomimetics 1c and 1d were also evaluated against MRSA in presence of 25% v/v human serum as well as bovine serum.
A general note: Dilution methods test growth across graded concentrations, often in twofold steps.

In series [1] the test system is methicillin resistant S. aureus (ATCC 33591). Description: MIC, serial broth dilution. The format is cell-based, Staphylococcus aureus. Particulars: MHB, 18 h, 37° C. How it is done:
as §1, §2

Series [2] relates to human red blood cells (hRBC). Kind of series: Hemolytic activity. The series is classed as cell-based. Particulars: 250 μg/mL, 1 h at 37° C. On the procedure: Hemolytic activity of the peptidomimetics was evaluated on human red blood cells (hRBC) as described previously with minor modifications [FEBS J, 273:4040-4054, 2006; Biochim Biophys Acta., 1798:1864-1875, 2010]. Briefly, 100 μL of fresh hRBC suspension 4% v/v in NaCl/Pi (35 mM phosphate buffer, 150 mM NaCl, pH 7.2) was placed in a 96-well plate. After incubation of the peptidomimetics (100 μL) in the hRBC suspension for 1 h at 37° C., the plates were centrifuged and supernatant (100 μL) was transferred to fresh 96-well plate. Absorbance was read at 540 nm using ELISA plate reader (Molecular Devices). Percent hemolysis was calculated using the following formula: % hemolysis=100[(A−A0)/(At−A0)]
Where, A represents absorbance of sample wells at 540 nm. Also A0 and At represents 0% and 100% hemolysis determined in NaCl/Pi and 1% Triton X-100, respectively (Table 2). […] Peptidomimetics 1e and 1f caused 31% and 30% hemolysis at 250 μg/mL. Peptidomimetics 2d, 2e and 2f caused significant hemolysis with 83%, 96% and 88% damage to hRBCs at […] respectively.

Series [3] deals with methicillin resistant Staphylococcus epidermidis (ATCC 51625). Kind of series: MIC, serial broth dilution. The note with it: MHB, 18 h, 37° C. The format is cell-based. How it is done:
as §1, §2

In series [4] the test system is Staphylococcus epidermidis (ATCC 12228). Kind of series: MIC, serial broth dilution. The note with it: MHB, 18 h, 37° C. The format is cell-based. How it is done: as §1, §2
Series [5] concerns Enterococcus faecalis (ATCC 7080). Description: MIC, serial broth dilution. Particulars: MHB, 18 h, 37° C. The series is classed as cell-based. On the procedure: as §1, §2
Series [6] deals with Escherichia coli (ATCC 11775). Description: MIC, serial broth dilution. Set-up: MIC E. coli. (ATCC 11775): unit not given here. Particulars: MHB, 18 h, 37° C. The format is cell-based. How it is done: as §1, §2
The next series has as its system MRSA. Kind of series: Membrane depolarization with DiSC3(5) dye. The series is classed as cell-based, Staphylococcus aureus. The note with it: up to the highest concentration tested. How it is done:
For determination of membrane depolarizing ability of designed peptidomimetics, a membrane potential sensitive dye DiSC3(5) was used as described previously with minor modifications [Org Biomol. Chem. 10: 8326-8335, 2012; J. Am. Chem. Soc., 132: 18417-18428, 2010.]. Briefly, overnight grown MRSA was sub cultured into MHB for 2-3 h at 37° C. to obtain mid-log phase cultures. The cells were centrifuged at 4000 rpm for 10 min at 25° C., washed, and re-suspended into respiration buffer (5 mM HEPES, 20 mM glucose, pH 7.4) to obtain a diluted suspension of OD600˜0.05. Then DiSC3(5) [0.18 μM in DMSO], was added to 500 μL aliquotes of the re-suspended cells and allowed to stabilize for 1 h. Baseline fluorescence was acquired using a Edinburg F900 spectrofluorometer by excitation at 622 nm and emission at 670 nm in a 1 cm path length cuvette. Bandwidth of 5 nm was employed for excitation and emission. Subsequently, increasing concentrations of test peptidomimetics were added to the stabilized cells and the increase of fluorescence on account of the de-quenching of DiSC3(5) dye was measured after every 2 min to obtain the maximal depolarization. Increase in relative fluorescence unit (RFU) was plotted against increasing concentrations of different peptidomimetics or PMB. […] The increase in fluorescence for lipid tagged peptidomimetics was concentration dependent up to 9.9 μg/mL and henceforth, got saturated resulting into plateau like dose response curves. The experiment was repeated twice on two consecutive days and produced similar results.

Series [7] concerns Acinetobacter baumannii (ATCC 19606). Kind of series: MIC, serial broth dilution. The format is cell-based. Particulars: MHB, 18 h, 37° C. On the procedure:
as §1, §2

In the case of `NCCCNCCCCNCCCNC(=O)C(Cc1c[nH]c2ccccc12)NC(=O)C(Cc1c[nH]c2ccccc12)NC(=O)C=Cc1ccc(O)c(O)c1` (stereo not drawn) [1b], the “MIC S. aureus (ATCC 29213)” value in the series with S. aureus (ATCC 29213) amounted to 0.0035 µg/mL (≈ 0.00475 µM). In addition, in series [1], the “MIC MRSA (ATCC 33591)” value was determined as 7.1 µg/mL (≈ 9.63 µM). In addition, the “% H, percentage hemolysis of human RBCs” value in [2] is 16%. In addition, the “MIC MRSE (ATCC 51625)” value in series [3] worked out at 0.0071 µg/mL (≈ 0.00963 µM). Also, in [4], the “MIC S. epidermidis (ATCC 12228)” value was 3.5 µg/mL (≈ 4.75 µM). In addition, the “MIC E. facaelis (ATCC 7080)” value in series [5] was determined as 0.1136 µg/mL (≈ 0.154 µM). For the same compound, in series [6], the “MIC E. coli. (ATCC 11775)” value amounted to 14.2.

In the case of `CCCCCCCCCCCC(=O)NC(Cc1c[nH]c2ccccc12)C(=O)NC(Cc1c[nH]c2ccccc12)C(=O)NCCCNCCCCNCCCN` (stereo not drawn) [1e], in the series on S. aureus (ATCC 29213), the “MIC S. aureus (ATCC 29213)” value is 0.0017 µg/mL (≈ 0.00225 µM). For the same compound, the “MIC MRSA (ATCC 33591)” value in series [1] is 3.5 µg/mL (≈ 4.62 µM). The “% H, percentage hemolysis of human RBCs” value in [2] is listed as 31%. Further, in the series with MRSA, the “change in relative fluorescence unit (RFU), membrane depolarization” value (“change in relative fluorescence unit” for short) is “significant changes in RFU”. Also, the “MIC MRSE (ATCC 51625)” value in [3] turned out to be 0.0017 µg/mL (≈ 0.00225 µM). In addition, the “MIC A. baumannii (ATCC 19606)” value in [7] stood at 0.0568 µg/mL (≈ 0.075 µM). For the same compound, in series [4], the “MIC S. epidermidis (ATCC 12228)” value was 1.7 µg/mL (≈ 2.25 µM). Moreover, in [5], the “MIC E. facaelis (ATCC 7080)” value was found to be 0.0071 µg/mL (≈ 0.00938 µM). The “MIC E. coli. (ATCC 11775)” value in series [6] is on record as 14.2.

For the compound `CCCCCC=CCC=CCCCCCCCC(=O)NC(Cc1c[nH]c2ccccc12)C(=O)NC(Cc1c[nH]c2ccccc12)C(=O)NCCCNCCCCNCCCN` (stereo not drawn) [1f], in the series on S. aureus (ATCC 29213), the “MIC S. aureus (ATCC 29213)” value was 0.0071 µg/mL (≈ 0.00848 µM). For the same compound, the “MIC MRSA (ATCC 33591)” value in series [1] was found to be 3.5 µg/mL (≈ 4.18 µM). Moreover, the “% H, percentage hemolysis of human RBCs” value in series [2] was determined as 30%. Moreover, the “change in relative fluorescence unit” value in the series on MRSA was “significant changes in RFU”. The “MIC MRSE (ATCC 51625)” value in series [3] is 0.0071 µg/mL (≈ 0.00848 µM). Also, in series [4], the “MIC S. epidermidis (ATCC 12228)” value came to 1.7 µg/mL (≈ 2.03 µM). Moreover, the “MIC E. facaelis (ATCC 7080)” value in [5] was found to be 0.0284 µg/mL (≈ 0.0339 µM). In [6], the “MIC E. coli. (ATCC 11775)” value is reported as 28.4.

Regarding `CCCCCCCCCC(=O)NCCCN(CCCCN(CCCN)C(=O)C(N)Cc1c[nH]c2ccccc12)C(=O)C(N)Cc1c[nH]c2ccccc12` (stereo not drawn) [2d], the “MIC S. aureus (ATCC 29213)” value against S. aureus (ATCC 29213) stood at 0.0008 µg/mL (≈ 0.0011 µM). In series [1], the “MIC MRSA (ATCC 33591)” value was determined as 1.7 µg/mL (≈ 2.33 µM). Further, the “% H, percentage hemolysis of human RBCs” value in [2] is listed as 83%. Besides, the “change in relative fluorescence unit” value in the series with MRSA is reported as “intermediate changes in fluorescence intensity”. In series [3], the “MIC MRSE (ATCC 51625)” value is 0.0017 µg/mL (≈ 0.00233 µM). Moreover, in series [7], the “MIC A. baumannii (ATCC 19606)” value came out at 0.1136 µg/mL (≈ 0.156 µM). In series [4], the “MIC S. epidermidis (ATCC 12228)” value amounted to 0.8 µg/mL (≈ 1.1 µM). For the same compound, in series [5], the “MIC E. facaelis (ATCC 7080)” value came out at 0.0284 µg/mL (≈ 0.039 µM). Moreover, in series [6], the “MIC E. coli. (ATCC 11775)” value was found to be 28.4.

On to `CCCCCCCCCCCC(=O)NCCCN(CCCCN(CCCN)C(=O)C(N)Cc1c[nH]c2ccccc12)C(=O)C(N)Cc1c[nH]c2ccccc12` (stereo not drawn) [2e], for which, in the series on S. aureus (ATCC 29213), the “MIC S. aureus (ATCC 29213)” value was determined as 0.0008 µg/mL (≈ 0.00106 µM). Also, the “MIC MRSA (ATCC 33591)” value in series [1] came out at 1.7 µg/mL (≈ 2.25 µM). In addition, the “% H, percentage hemolysis of human RBCs” value in series [2] came to 96%. The “change in relative fluorescence unit” value in the series on MRSA was “significant changes in RFU”. The “MIC MRSE (ATCC 51625)” value in series [3] turned out to be 0.0017 µg/mL (≈ 0.00225 µM). In addition, the “MIC A. baumannii (ATCC 19606)” value in series [7] came out at 0.1136 µg/mL (≈ 0.15 µM). For the same compound, the “MIC S. epidermidis (ATCC 12228)” value in [4] amounted to 0.8 µg/mL (≈ 1.06 µM). For the same compound, the “MIC E. facaelis (ATCC 7080)” value in series [5] turned out to be 0.0071 µg/mL (≈ 0.00938 µM). Further, the “MIC E. coli. (ATCC 11775)” value in [6] is on record as 28.4.

On to `CCCCCC=CCC=CCCCCCCCC(=O)NCCCN(CCCCN(CCCN)C(=O)C(N)Cc1c[nH]c2ccccc12)C(=O)C(N)Cc1c[nH]c2ccccc12` (stereo not drawn) [2f], for which, in the series on S. aureus (ATCC 29213), the “MIC S. aureus (ATCC 29213)” value was 0.0008 µg/mL (≈ 0.000956 µM). For the same compound, in series [1], the “MIC MRSA (ATCC 33591)” value stood at 3.5 µg/mL (≈ 4.18 µM). For the same compound, the “% H, percentage hemolysis of human RBCs” value in series [2] amounted to 88%. Besides, the “change in relative fluorescence unit” value in the series on MRSA is on record as “significant changes in RFU”. In series [3], the “MIC MRSE (ATCC 51625)” value was 0.0017 µg/mL (≈ 0.00203 µM). Besides, the “MIC A. baumannii (ATCC 19606)” value in [7] is 0.0568 µg/mL (≈ 0.0678 µM). The “MIC S. epidermidis (ATCC 12228)” value in [4] is 0.8 µg/mL (≈ 0.956 µM). The “MIC E. facaelis (ATCC 7080)” value in series [5] is 0.0142 µg/mL (≈ 0.017 µM). The “MIC E. coli. (ATCC 11775)” value in [6] amounted to 28.4.
